# Assay results taken from patent US20040209897A1 (Pharmacia Corporation, priority 2002, published 2004).
# Experiments:
# [1] = tested on: collagen-induced arthritis; conditions: mouse; cited from earlier work
# endotoxin-induced shock = conditions: murine model of endotoxin-induced shock; cited from earlier work
# adjuvant arthritis = conditions: rat; cited from earlier work
# MK-2 = conditions: cited from earlier work
# granulomas = conditions: laboratory rats; cited from earlier work
# SCW-induced arthritis = experiment: Streptococcus cell wall (SCW)-induced arthritis, paw volume / paw swelling; format: in vivo; conditions: rats, FIG. 4, A at 20, 60, 200 mpk/day, B at 60, 120, 240 mpk/day
# [2] = tested on: streptococcal cell wall (SCW)-induced arthritis; experiment: Chronic streptococcal cell wall (SCW)-induced arthritis in Lewis rats, paw volume; format: in vivo; conditions: female Lewis rats, daily dosing from day 10, paw volume measured 11 days after start of administration, A at 200, 60, 20 mpk/day, B at 240, 120, 60 mpk/day, FIG. 3
# Excerpt: The use of Lewis rats with chronic streptococcal cell wall (SCW)-induced arthritis as models for testing potentially therapeutic compounds has been described by Richards, P. J., et al., Rhermatology (Oxford), 40(9):978-987 (2001), and Melay, L. M. et al, Bioorg. Med. Chem., 9(2):537-554 (2001), among others. In the present test, female Lewis rats were divided into eight groups. One group served as the “normal” control and received no arthritis inducement. Chronic streptococcal cell wall (SCW)-induced arthritis was induced in the remaining seven groups. One of the severn groups in which arthritis was induced served as a “vehicle” control and received dosage only of vehicle at the same intervals as those rats receiving the test compounds. Three additional groups of rats received the vehicle plus 2-{2-[(E)-2-phenylethenyl]pyridin-4-yl}-1,5,6,7-tetrahydro-4H-pyrrolo[3,2-c]pyridin-4-one (Compound “A”) in daily dosages. All rats were started on the test at day 0. […]
# To measure the effectiveness of the compounds for the treatment of SCW-induced arthritis, rat paw volume was measured at eleven (11) days from the initiation of administration of the test compounds. […]
structure (smiles),measurement,setting,value
C[S+]([O-])c1ccc(-c2nc(-c3ccncc3)c(-c3ccc(F)cc3)[nH]2)cc1 (stereo not drawn) [SB203580],development of collagen-induced arthritis,[1],inhibit the development
same,mortality,endotoxin-induced shock,reduce mortality
same,development of adjuvant arthritis,adjuvant arthritis,inhibit the development
same,inhibition of activation of MK-2,MK-2,inhibit activation
Nc1nccc(-c2c(-c3ccc(F)cc3)ncn2C2CCNCC2)n1 [SB 220025],vascular density of granulomas,granulomas,significant dose-dependent decrease
"O=C1NCCc2[nH]c(-c3ccnc(/C=C/c4ccccc4)c3)cc21 [Compound A, 2-{2-[(E)-2-phenylethenyl]pyridin-4-yl}-1,5,6,7-tetrahydro-4H-pyrrolo[3,2-c]pyridin-4-one]",percent inhibition in paw swelling as a function of the dosage rate,SCW-induced arthritis,typical dose-response behavior
same,average paw volume (increase versus vehicle controls),[2],significantly lower increases in paw volume
"O=C(O)C(F)(F)F.O=C1NCCc2[nH]c(-c3ccnc(-c4ccccc4F)c3)cc21 [B, 2-[2-(2-fluorophenyl)pyridin-4-yl]-1,5,6,7-tetrahydro-4H-pyrrolo[3,2-c]pyridin-4-one trifluoroacetate]",percent inhibition in paw swelling as a function of the dosage rate,SCW-induced arthritis,typical dose-response behavior
same,average paw volume (increase versus vehicle controls),[2],significantly lower increases in paw volume
